Assays:
Type in all cases: biochemical
JAK1 = target: T1, JAK1 (Homo sapiens, UniProt P23458); assay: JAK tyrosine kinase inhibitory activity in the presence of 1 mM ATP (ELISA), JAK1
T1 construct: purchased Carna Biosciences, Inc
Description: (§1) 1. Preparation of Test Compound
(§2) The test compound was dissolved in dimethyl sulfoxide (DMSO) to 10 mM and further diluted with DMSO to the concentrations of 1000, 100, 10, 1, 0.1 and 0.01 μM, respectively. For JAK1, these solutions of the test compound at the six concentrations 10 mM, 1000 μM, 100 μM, 10 μM, 1 μM and 0.1 μM were used. For JAK2 and JAK3, these solutions of the test compound at the six concentrations 1000 μM, 100 μM, 10 μM, 1 μM, 0.1 μM and 0.01 μM were used. The test compound solutions were diluted further to 20-fold with an assay buffer to obtain a sample solution. 15 mM Tris-HCl (pH7.5), 0.01 (v/v) % Tween-20 and 1 mM dithiothreitol were used as an assay buffer. DMSO was diluted to 20-fold with the assay buffer and was used as a negative control.
(§3) 2. JAK Tyrosine Kinase Inhibitory Activity in the Presence of 1 mM Atp
(§4) The activity was determined by ELISA method. Each of the sample solutions was added to a streptavidine coated 96-well plate (DELFIA Strip Plate 8×12 well, PerkinElmer) at 10 μL/well (n=2). […] Finally, JAK tyrosine kinase (Carna Biosciences, Inc.), which was previously diluted with the assay buffer to 7.5 nM for JAK1 and 0.75 nM for JAK2 and JAK3, was added to the plate at 20 μL/well, and the plate was incubated at 30° C. for 1 h. The plate was washed four times with buffer (50 mM Tris-HCl (pH 7.5), 150 mM NaCl, 0.02 (v/v) % Tween-20). A blocking buffer (0.1% Bovine Serum Albumin, 50 mM Tris-HCl (pH 7.5), 150 mM NaCl, 0.02 (v/v) % Tween-20) was added to the plate at 150 μL/well and the plate was blocked at 30° C. for 1 h. The blocking buffer was removed, and a horse radish peroxidase-labeled anti-phosphorylated tyrosine antibody (BD Biosciences, Inc.) (diluted to 10000-fold with the blocking buffer) was added to the plate at 100 μL/well, and the plate was incubated at 30° C. for 30 min. The plate was washed with the washing buffer four times, and 3,3′,5,5′-tetramethylbenizidine solution (Nacalai Tesque) was added to the plate at 100 μL/well to develop the color for 10 minutes. To the plate was added 0.1 M sulfuric acid at 100 μL/well to stop the reaction. The absorbance at 450 nm was measured using a microplate reader (BIO-RAD).
(§5) 3. Analysis of the Results

JAK2 = target: T2, JAK2 (Homo sapiens, UniProt O60674); assay: JAK tyrosine kinase inhibitory activity in the presence of 1 mM ATP (ELISA), JAK2
T2 construct: purchased Carna Biosciences, Inc
T2 sequence (O60674 whole entry): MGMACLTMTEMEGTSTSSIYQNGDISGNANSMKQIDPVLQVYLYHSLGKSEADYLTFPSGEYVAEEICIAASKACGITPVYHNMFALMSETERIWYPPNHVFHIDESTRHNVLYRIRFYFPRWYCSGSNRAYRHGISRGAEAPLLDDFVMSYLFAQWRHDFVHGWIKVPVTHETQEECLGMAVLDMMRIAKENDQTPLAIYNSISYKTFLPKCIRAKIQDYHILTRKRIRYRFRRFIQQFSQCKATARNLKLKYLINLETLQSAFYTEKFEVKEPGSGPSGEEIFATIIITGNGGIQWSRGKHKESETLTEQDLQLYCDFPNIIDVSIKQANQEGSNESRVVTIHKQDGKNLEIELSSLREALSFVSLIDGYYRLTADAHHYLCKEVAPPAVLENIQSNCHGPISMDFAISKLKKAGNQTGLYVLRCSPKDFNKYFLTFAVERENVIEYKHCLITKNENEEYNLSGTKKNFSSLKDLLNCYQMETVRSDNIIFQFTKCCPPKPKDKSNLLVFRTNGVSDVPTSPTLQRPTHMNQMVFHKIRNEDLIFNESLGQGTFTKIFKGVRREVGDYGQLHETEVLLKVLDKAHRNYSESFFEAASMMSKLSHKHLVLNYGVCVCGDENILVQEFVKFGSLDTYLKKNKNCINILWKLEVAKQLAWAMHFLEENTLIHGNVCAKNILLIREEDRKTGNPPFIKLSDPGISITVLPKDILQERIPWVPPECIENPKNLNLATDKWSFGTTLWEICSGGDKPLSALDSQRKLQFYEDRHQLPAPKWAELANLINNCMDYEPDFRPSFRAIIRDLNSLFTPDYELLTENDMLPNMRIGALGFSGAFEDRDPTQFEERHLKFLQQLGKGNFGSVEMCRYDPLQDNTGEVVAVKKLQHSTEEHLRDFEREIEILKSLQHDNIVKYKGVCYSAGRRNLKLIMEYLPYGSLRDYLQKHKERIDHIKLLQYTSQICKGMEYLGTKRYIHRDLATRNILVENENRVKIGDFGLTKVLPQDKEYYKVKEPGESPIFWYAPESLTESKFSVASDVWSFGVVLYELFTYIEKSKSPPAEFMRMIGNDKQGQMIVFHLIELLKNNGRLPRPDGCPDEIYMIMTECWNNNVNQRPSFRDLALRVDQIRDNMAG
Description: as §1, §2, §3, §4, §5

JAK3 = target: T3, JAK3 (Homo sapiens, UniProt P52333); assay: JAK tyrosine kinase inhibitory activity in the presence of 1 mM ATP (ELISA), JAK3
T3 construct: purchased Carna Biosciences, Inc
T3 sequence (P52333 1-1124): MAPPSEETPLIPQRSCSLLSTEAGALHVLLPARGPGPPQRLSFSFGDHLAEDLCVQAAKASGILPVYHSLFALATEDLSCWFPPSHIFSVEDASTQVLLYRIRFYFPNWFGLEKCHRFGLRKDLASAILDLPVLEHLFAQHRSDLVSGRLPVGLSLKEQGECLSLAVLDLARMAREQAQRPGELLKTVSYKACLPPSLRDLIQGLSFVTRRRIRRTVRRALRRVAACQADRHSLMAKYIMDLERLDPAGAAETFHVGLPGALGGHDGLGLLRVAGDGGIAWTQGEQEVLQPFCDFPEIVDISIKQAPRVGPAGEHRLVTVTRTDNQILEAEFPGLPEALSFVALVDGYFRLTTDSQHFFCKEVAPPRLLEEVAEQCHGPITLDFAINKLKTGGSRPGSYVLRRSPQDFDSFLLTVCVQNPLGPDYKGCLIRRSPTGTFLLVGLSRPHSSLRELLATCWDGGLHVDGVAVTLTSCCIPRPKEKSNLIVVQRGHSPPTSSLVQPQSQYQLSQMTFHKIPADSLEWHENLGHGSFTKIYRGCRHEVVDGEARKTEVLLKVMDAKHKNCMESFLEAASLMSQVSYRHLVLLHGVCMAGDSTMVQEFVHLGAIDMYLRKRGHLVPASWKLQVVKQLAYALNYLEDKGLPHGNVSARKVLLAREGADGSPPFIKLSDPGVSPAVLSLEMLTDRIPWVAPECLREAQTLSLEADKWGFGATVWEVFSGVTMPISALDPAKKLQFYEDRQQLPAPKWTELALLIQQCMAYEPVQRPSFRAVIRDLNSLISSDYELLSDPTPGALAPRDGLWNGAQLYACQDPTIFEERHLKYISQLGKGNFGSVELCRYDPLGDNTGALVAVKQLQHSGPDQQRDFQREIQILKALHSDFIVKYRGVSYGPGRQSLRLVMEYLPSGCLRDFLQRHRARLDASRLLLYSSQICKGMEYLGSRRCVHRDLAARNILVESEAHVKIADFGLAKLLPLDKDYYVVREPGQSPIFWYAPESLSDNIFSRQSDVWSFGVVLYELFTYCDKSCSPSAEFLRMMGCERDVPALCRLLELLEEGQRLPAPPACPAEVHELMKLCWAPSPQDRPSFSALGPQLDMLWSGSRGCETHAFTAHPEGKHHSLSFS
Description: as §1, §2, §3, §4, §5

T1 sequence (P23458 whole entry): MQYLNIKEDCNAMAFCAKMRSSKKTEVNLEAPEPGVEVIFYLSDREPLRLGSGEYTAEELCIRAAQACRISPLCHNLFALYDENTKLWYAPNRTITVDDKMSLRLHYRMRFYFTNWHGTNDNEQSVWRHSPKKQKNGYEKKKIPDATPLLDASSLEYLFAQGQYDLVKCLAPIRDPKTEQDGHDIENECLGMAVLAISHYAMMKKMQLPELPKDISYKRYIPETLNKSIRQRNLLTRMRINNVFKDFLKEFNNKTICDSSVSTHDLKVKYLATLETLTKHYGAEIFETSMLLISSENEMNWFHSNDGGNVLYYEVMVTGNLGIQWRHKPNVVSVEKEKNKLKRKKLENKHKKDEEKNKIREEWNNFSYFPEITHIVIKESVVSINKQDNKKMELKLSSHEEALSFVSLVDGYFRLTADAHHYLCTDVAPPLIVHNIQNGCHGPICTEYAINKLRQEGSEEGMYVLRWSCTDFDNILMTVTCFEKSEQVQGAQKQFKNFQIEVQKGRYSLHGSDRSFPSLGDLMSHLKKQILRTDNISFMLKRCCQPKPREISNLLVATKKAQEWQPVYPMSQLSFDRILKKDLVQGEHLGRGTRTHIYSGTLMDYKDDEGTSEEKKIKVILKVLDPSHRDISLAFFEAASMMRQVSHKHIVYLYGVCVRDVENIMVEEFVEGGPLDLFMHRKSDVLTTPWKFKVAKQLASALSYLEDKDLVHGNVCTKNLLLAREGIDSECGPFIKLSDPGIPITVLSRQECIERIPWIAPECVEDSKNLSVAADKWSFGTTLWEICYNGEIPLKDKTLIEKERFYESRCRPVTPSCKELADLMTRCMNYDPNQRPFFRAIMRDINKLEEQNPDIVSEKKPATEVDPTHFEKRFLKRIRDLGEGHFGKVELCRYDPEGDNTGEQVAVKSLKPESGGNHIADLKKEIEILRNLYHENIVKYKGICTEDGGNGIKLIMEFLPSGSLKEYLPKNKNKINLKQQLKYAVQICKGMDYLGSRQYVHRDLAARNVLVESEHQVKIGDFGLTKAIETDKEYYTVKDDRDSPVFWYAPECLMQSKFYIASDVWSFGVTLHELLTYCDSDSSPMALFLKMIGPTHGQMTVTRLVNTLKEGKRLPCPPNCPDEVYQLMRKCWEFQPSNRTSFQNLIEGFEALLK

| Structure (SMILES) | IC50 (JAK1) | IC50 (JAK2) | IC50 (JAK3) |
| --- | --- | --- | --- |
| C[C@@H](Nc1cc(C(=O)N2CCC(NC(=O)C3CC3)CC2)nc(-c2cnn3ccsc23)n1)C1CC1 [Example 46, N-(1-{[6-{[(1R)-1-Cyclopropylethyl]amino}-2-(pyrazolo[5,1-b][1,3]thiazol-7-yl)pyrimidin-4-yl]carbonyl}piperidin-4-yl)cyclopropanecarboxamide] | 170 nM | 1600 nM | 7200 nM |
| CC(C)(CO)Nc1cc(C(=O)N2CCC(NC(=O)C3CC3)CC2)nc(-c2cnn3ccsc23)n1 [Example 48, N-[1-({6-[(1-Hydroxy-2-methylpropan-2-yl)amino]-2-(pyrazolo[5,1-b][1,3]thiazol-7-yl)pyrimidin-4-yl}carbonyl)piperidin-4-yl]cyclopropanecarboxamide] | 150 nM | > 10000 nM | > 10000 nM |
| C[C@H](Nc1cc(C(=O)N2CCC(Nc3nccs3)CC2)nc(-c2cnn3ccsc23)n1)C1CC1 [Example 50, [6-{[(1S)-1-Cyclopropylethyl]amino}-2-(pyrazolo[5,1-b][1,3]thiazol-7-yl)pyrimidin-4-yl][4-(1,3-thiazol-2-ylamino)piperidin-1-yl]methanone] | 150 nM | 2000 nM | 2500 nM |
| COc1ccc([C@@H](C)Nc2cc(C(=O)N3CCC(NC(=O)C4CC4)CC3)nc(-c3cnn4ccsc34)n2)cc1 [Example 52, N-(1-{[6-{[(1R)-1-(4-Methoxyphenyl)ethyl]amino}-2-(pyrazolo[5,1-b][1,3]thiazol-7-yl)pyrimidin-4-yl]carbonyl}piperidin-4-yl)cyclopropanecarboxamide] | 180 nM | 9300 nM | > 10000 nM |
| CC(C)(C)[C@@H](CO)Nc1cc(C(=O)N2CCC(NC(=O)C3CC3)CC2)nc(-c2cnn3ccsc23)n1 [Example 55, N-(1-{[6-{[(2S)-1-Hydroxy-3,3-dimethylbutan-2-yl]amino}-2-(pyrazolo[5,1-b][1,3]thiazol-7-yl)pyrimidin-4-yl]carbonyl}piperidin-4-yl)cyclopropanecarboxamide] | 140 nM | > 10000 nM | > 10000 nM |
| COc1ccc([C@@H](C)Nc2cc(C(=O)N3CCC(O)CC3)nc(-c3cnn4ccsc34)n2)cc1 [Example 56, (4-Hydroxypiperidin-1-yl) [6-{[(1R)-1-(4-methoxyphenyl)ethyl]amino}-2-(pyrazolo[5,1-b][1,3]thiazol-7-yl)pyrimidin-4-yl]methanone] | 940 nM | 7300 nM | > 10000 nM |
| COC(=O)NC1CCN(C(=O)c2cc(NC(C)(C)C)nc(-c3cnn4ccsc34)n2)CC1 [Example 59, Methyl (1-{[6-(tert-butylamino)-2-(pyrazolo[5,1-b][1,3]thiazol-7-yl)pyrimidin-4-yl]carbonyl}piperidin-4-yl)carbamate] | 140 nM | 3900 nM | 5600 nM |
| CC(C)OC(=O)NC1CCN(C(=O)c2cc(NC(C)(C)C)nc(-c3cnn4ccsc34)n2)CC1 [Example 60, Propan-2-yl (1-{[6-(tert-butylamino)-2-(pyrazolo[5,1-b][1,3]thiazol-7-yl)pyrimidin-4-yl]carbonyl}piperidin-4-yl)carbamate] | 72 nM | 5400 nM | 6100 nM |
| COC(=O)NC1CCN(C(=O)c2cc(NC(C)(C)CO)nc(-c3cnn4ccsc34)n2)CC1 [Example 61, Methyl [1-({6-[(l-hydroxy-2-methylpropan-2-yl)amino]-2-(pyrazolo[5,1-b][1, 3]thiazol-7-yl)pyrimidin-4-yl}carbonyl)piperidin-4-yl]carbamate] | 540 nM | > 10000 nM | 9400 nM |
| COC(=O)NC1CCN(C(=O)c2cc(OC(C)C(C)(C)C)nc(-c3cnn4ccsc34)n2)CC1 (stereo not drawn) [Example 64, Methyl [1-({6-[(3,3-dimethylbutan-2-yl)oxy]-2-(pyrazolo[5,1-b][1,3]thiazol-7-yl)pyrimidin-4-yl}carbonyl)piperidin-4-yl]carbamate] | 260 nM | 3100 nM | > 10000 nM |
| C[C@H](Nc1cc(C(=O)N2CCC(NS(C)(=O)=O)CC2)nc(-c2cnn3ccsc23)n1)C1CC1 [Example 66, N-(1-{[6-{[(1S)-1-Cyclopropylethyl]amino}-2-(pyrazolo[5,1-b][1,3]thiazol-7-yl)pyrimidin-4-yl]carbonyl}piperidin-4-yl)methanesulfonamide] | 110 nM | 620 nM | 2400 nM |
| C[C@H](Nc1cc(C(=O)N2CCC(NS(=O)(=O)C3CC3)CC2)nc(-c2cnn3ccsc23)n1)C1CC1 [Example 67, N-(1-{[6-{[(1S)-1-Cyclopropylethyl]amino}-2-(pyrazolo[5,1-b][1,3]thiazol-7-yl)pyrimidin-4-yl]carbonyl}piperidin-4-yl)cyclopropanesulfonamide] | 25 nM | 680 nM | 1900 nM |
| CCS(=O)(=O)NC1CCN(C(=O)c2cc(N[C@@H](C)C3CC3)nc(-c3cnn4ccsc34)n2)CC1 [Example 68, N-(1-{[6-{[(1S)-1-Cyclopropylethyl]amino}-2-(pyrazolo[5,1-b][1,3]thiazol-7-yl)pyrimidin-4-yl]carbonyl}piperidin-4-yl)ethanesulfonamide] | 73 nM | 790 nM | 2100 nM |
| CC(C)C(=O)NC1CCN(C(=O)c2cc(NC(C)(C)C)nc(-c3cnn4ccsc34)n2)CC1 [Example 69, N-(1-{[6-(tert-Butylamino)-2-(pyrazolo[5,1-b][1,3]thiazol-7-yl)pyrimidin-4-yl]carbonyl}piperidin-4-yl)-2-methylpropanamide] | 810 nM | 3500 nM | 5700 nM |
| CCOC(=O)NC1CCN(C(=O)c2cc(NC(C)(C)C)nc(-c3cnn4ccsc34)n2)CC1 [Example 71, Ethyl (1-{[6-(tert-butylamino)-2-(pyrazolo[5,1-b][1,3]thiazol-7-yl)pyrimidin-4-yl]carbonyl}piperidin-4-yl)carbamate] | 200 nM | 3700 nM | 4000 nM |
| CC(C)(C)Nc1cc(C(=O)N2CCC(Nc3ccccn3)CC2)nc(-c2cnn3ccsc23)n1 [Example 72, [6-(tert-Butylamino)-2-(pyrazolo[5,1-b][1,3]thiazol-7-yl)pyrimidin-4-yl][4-(pyridin-2-ylamino)piperidin-1-yl]methanone] | 310 nM | 6100 nM | 5900 nM |
| CC(C)(C)Nc1cc(C(=O)N2CCC(Nc3nccs3)CC2)nc(-c2cnn3ccsc23)n1 [Example 75, [6-(tert-Butylamino)-2-(pyrazolo[5,1-b][1,3]thiazol-7-yl)pyrimidin-4-yl][4-(1,3-thiazol-2-ylamino)piperidin-1-yl]methanone] | 150 nM | 930 nM | 4800 nM |

From patent publication US9999622B2, “Pyrazolothiazole compound and medicine comprising same” (NIPPON SHINYAKU CO., LTD., priority 2014, dated 2018)
